Results taken from patent US12459925B2, “Sulphonyl urea derivatives as NLRP3 inflammasome modulators” (priority 2017, dated 2025).

These molecules were tested on IL-1β release upon NLRP3 activation in peripheral blood mononuclear cells (PBMC) (assay: PBMC IC50 determination assay (IL-1β release, Protocol A ELISA / Protocol B HTRF)). Conditions: Homo sapiens, PBMC, read-out: Average PBMC IC50 (μM).
Type: cell-based
Experimental: The compounds of the present disclosure were tested for their inhibitory activity against IL-1β release upon NLRP3 activation in peripheral blood mononuclear cells (PBMC).
Isolated cells were seeded into the wells of a 96-well plate and incubated for 3 h with lipopolysaccharide (LPS). Following medium exchange, the compounds of the present disclosure were added (a single compound per well) and the cells were incubated for 30 min. Next, the cells were stimulated either with ATP (5 mM) or nigericin (10 μM) for 1 h and the cell culture media from the wells were collected for further analysis.
The release of IL1-β into the media was determined by a quantitative detection of IL-1β in the media using an IL-1β enzyme-linked immunosorbent assay (ELISA) Ready-SET-Go!, eBioscience cat. […] Subsequently, plates were blocked with blocking buffer for 1 h at room temperature (rt) and after washing with a buffer (PBS with 0.05% Tween-20) incubated with protein standard and culture media. […] Plates were washed and incubated with HRP-streptavidin for 30 min at rt and washed again. The signal was developed after addition of 3,3′,5,5′-tetramethylbenzidine-peroxidase (TMB) until colour appeared and the reaction was stopped by 2 M H2SO4. A microplate spectrophotometer (BioTek) was used to detect signals with 450 nm. The detection range of IL-1β ELISA was 2-150 ng/ml.
Isolated cells were seeded into the wells (280,000 cells/well) of a 96-well plate and incubated for 3 h with lipopolysaccharide (LPS, 1 μg/ml diluted 1000× from a 1 mg/ml stock solution). The compounds of the present disclosure were added (a single compound per well) and the cells were incubated for 30 min. Next, the cells were stimulated with ATP (5 mM final concentration diluted 20× from a 100 mM stock solution) for 1 h and the cell culture media from the wells were collected for further analysis.
The release of IL-1β into the media was determined by quantitative detection of IL-1β in the media using HTRF®, CisBio cat. No. 62HIL1BPEH. Briefly, cell culture supernatant were dispensed directly into the assay plate containing antibodies labelled with the HTRF® donor and acceptor. A microplate spectrophotometer (BMG) was used to detect signals at 655 nm and 620 nm. The detection range of IL-1β HTRF® was 39-6500 pg/ml.

First: CN1CCC(N(c2cn[nH]c2)S(=O)(=O)NC(=O)Nc2c3c(cc4c2CCC4)CCC3)CC1 [Compound 40]
Second: O=C(Nc1c2c(cc3c1CCC3)CCC2)NS(=O)(=O)N(c1cn[nH]c1)C1CCOCC1 [Compound 48]
The IC50 of the first is higher: 1 to 3 µM for the first, less than 1 µM for the second. The second is the more potent here.

Compared with `Cn1cc(N(C2CCN(CC(F)F)CC2)S(=O)(=O)NC(=O)Nc2c3c(cc4c2CCC4)CCC3)cn1` [Compound 45], `Cn1cc(N(C2CN3CCC2CC3)S(=O)(=O)NC(=O)Nc2c3c(cc4c2CCC4)CCC3)cn1` (stereo not drawn) [Compound 54] is lower in IC50: 1 to 3 µM for the first, less than 1 µM for the second.

Same assay, conditions: Homo sapiens; PBMC primed with LPS 3 h, compound 30 min, stimulated with ATP (5 mM) or nigericin (10 μM) 1 h; IL-1β in media; read-out: Average PBMC IC50

`Cn1cc(N(C2CCOCC2)S(=O)(=O)NC(=O)Nc2c3c(cc4c2CCC4)CCC3)cn1` [Compound 1] and `Cn1cc(N(C2CCOC2)S(=O)(=O)NC(=O)Nc2c3c(cc4c2CCC4)CCC3)cn1` (stereo not drawn) [Compound 8] cannot be ordered by IC50: less than 1 µM for the first, less than 1 µM for the second.

`CN1CCC(N(c2cnn(C)c2)S(=O)(=O)NC(=O)Nc2c3c(cc4c2CCC4)CCC3)CC1` [Compound 2] and `CN1CCC(N(c2cnn(C)c2)S(=O)(=O)NC(=O)Nc2c3c(cc4c2CCC4)CCC3)C1` (stereo not drawn) [Compound 24] cannot be ordered by IC50: less than 1 µM for the first, less than 1 µM for the second.

Compared with `CN1CCC(CN(c2cnn(C)c2)S(=O)(=O)NC(=O)Nc2c3c(cc4c2CCC4)CCC3)CC1` [Compound 3], `CN1CCC(CN(c2cnn(C)c2)S(=O)(=O)NC(=O)Nc2c3c(cc4c2CCC4)CCC3)C1` (stereo not drawn) [Compound 57] is lower in IC50: 1 to 3 µM for the first, less than 1 µM for the second. The second is the more potent here.

`CC(C)n1cc(N(C2CCOCC2)S(=O)(=O)NC(=O)Nc2c3c(cc4c2CCC4)CCC3)cn1` [Compound 4] and `O=C(Nc1c2c(cc3c1CCC3)CCC2)NS(=O)(=O)N(c1cnn(C(F)F)c1)C1CCOCC1` [Compound 25] cannot be ordered by IC50: less than 1 µM for the first, less than 1 µM for the second.

`CC(C)n1cc(N(C2CCN(C)CC2)S(=O)(=O)NC(=O)Nc2c3c(cc4c2CCC4)CCC3)cn1` [Compound 5] and `CC(C)n1cc(N(C2CCN(C)C2)S(=O)(=O)NC(=O)Nc2c3c(cc4c2CCC4)CCC3)cn1` (stereo not drawn) [Compound 56] cannot be ordered by IC50: less than 1 µM for the first, less than 1 µM for the second.

`CCn1cc(N(C2CCOCC2)S(=O)(=O)NC(=O)Nc2c3c(cc4c2CCC4)CCC3)cn1` [Compound 6] and `COCn1cc(N(C2CCOCC2)S(=O)(=O)NC(=O)Nc2c3c(cc4c2CCC4)CCC3)cn1` [Compound 27] cannot be ordered by IC50: less than 1 µM for the first, less than 1 µM for the second.

`CCn1cc(N(C2CCN(C)CC2)S(=O)(=O)NC(=O)Nc2c3c(cc4c2CCC4)CCC3)cn1` [Compound 7] and `COCn1cc(N(C2CCN(C)CC2)S(=O)(=O)NC(=O)Nc2c3c(cc4c2CCC4)CCC3)cn1` [Compound 28] cannot be ordered by IC50: less than 1 µM for the first, less than 1 µM for the second.

First: Cn1ccc(N(C2CCOCC2)S(=O)(=O)NC(=O)Nc2c3c(cc4c2CCC4)CCC3)n1 [Compound 9]
Second: Cn1cnc(N(C2CCOCC2)S(=O)(=O)NC(=O)Nc2c3c(cc4c2CCC4)CCC3)c1 [Compound 21]
The IC50 of the first is lower: less than 1 µM for the first, 3 to 10 µM for the second. The first is the more potent here.

`Cc1c(N(C2CCOCC2)S(=O)(=O)NC(=O)Nc2c3c(cc4c2CCC4)CCC3)cnn1C` [Compound 10] and `Cc1c(N(C2CCN(C)CC2)S(=O)(=O)NC(=O)Nc2c3c(cc4c2CCC4)CCC3)cnn1C` [Compound 14] cannot be ordered by IC50: less than 1 µM for the first, less than 1 µM for the second.

Compared with `Cc1nn(C)c(C)c1N(C1CCOCC1)S(=O)(=O)NC(=O)Nc1c2c(cc3c1CCC3)CCC2` [Compound 11], `Cc1nn(C)c(C)c1N(C1CCN(C)CC1)S(=O)(=O)NC(=O)Nc1c2c(cc3c1CCC3)CCC2` [Compound 15] is higher in IC50: less than 1 µM for the first, 1 to 3 µM for the second.

First: Cc1cc(N(C2CCOCC2)S(=O)(=O)NC(=O)Nc2c3c(cc4c2CCC4)CCC3)no1 [Compound 12]
Second: Cc1cc(N(C2CCOCC2)S(=O)(=O)NC(=O)Nc2c3c(cc4c2CCC4)CCC3)on1 [Compound 18]
The IC50 of the first is higher: 3 to 10 µM for the first, less than 1 µM for the second. The second is the more potent here.

`O=C(Nc1c2c(cc3c1CCC3)CCC2)NS(=O)(=O)N(c1cnoc1)C1CCOCC1` [Compound 13] and `O=C(Nc1c2c(cc3c1CCC3)CCC2)NS(=O)(=O)N(c1cncnc1)C1CCOCC1` [Compound 17] cannot be ordered by IC50: less than 1 µM for the first, less than 1 µM for the second.

`Cn1cc(N(CC2COC2)S(=O)(=O)NC(=O)Nc2c3c(cc4c2CCC4)CCC3)cn1` [Compound 16] and `Cn1cc(N(C2CCCOC2)S(=O)(=O)NC(=O)Nc2c3c(cc4c2CCC4)CCC3)cn1` (stereo not drawn) [Compound 22] cannot be ordered by IC50: less than 1 µM for the first, less than 1 µM for the second.

Compared with `Cn1cnc(N(C2CCOCC2)S(=O)(=O)NC(=O)Nc2c3c(cc4c2CCC4)CCC3)n1` [Compound 19], `COCCn1cc(N(C2CCOCC2)S(=O)(=O)NC(=O)Nc2c3c(cc4c2CCC4)CCC3)cn1` [Compound 29] is lower in IC50: 3 to 10 µM for the first, less than 1 µM for the second.

`CN1CCC(N(c2ccn(C)n2)S(=O)(=O)NC(=O)Nc2c3c(cc4c2CCC4)CCC3)CC1` [Compound 20] and `COCCn1cc(N(C2CCN(C)CC2)S(=O)(=O)NC(=O)Nc2c3c(cc4c2CCC4)CCC3)cn1` [Compound 38] cannot be ordered by IC50: less than 1 µM for the first, less than 1 µM for the second.

`CN1CCCC(N(c2cnn(C)c2)S(=O)(=O)NC(=O)Nc2c3c(cc4c2CCC4)CCC3)C1` (stereo not drawn) [Compound 23] and `CCN1CCCC(N(c2cnn(C)c2)S(=O)(=O)NC(=O)Nc2c3c(cc4c2CCC4)CCC3)C1` (stereo not drawn) [Compound 62] cannot be ordered by IC50: less than 1 µM for the first, less than 1 µM for the second.

`O=C(Nc1c2c(cc3c1CCC3)CCC2)NS(=O)(=O)N(c1cnn(CC(F)(F)F)c1)C1CCOCC1` [Compound 26] and `O=C(Nc1c2c(cc3c1CCC3)CCC2)NS(=O)(=O)N(c1cnn(CC(F)F)c1)C1CCOCC1` [Compound 35] cannot be ordered by IC50: less than 1 µM for the first, less than 1 µM for the second.

`N#CCn1cc(N(C2CCOCC2)S(=O)(=O)NC(=O)Nc2c3c(cc4c2CCC4)CCC3)cn1` [Compound 30] and `CN1CCC(N(c2cnn(CC#N)c2)S(=O)(=O)NC(=O)Nc2c3c(cc4c2CCC4)CCC3)CC1` [Compound 31] cannot be ordered by IC50: less than 1 µM for the first, less than 1 µM for the second.

`CCN1CCC(N(c2cnn(C)c2)S(=O)(=O)NC(=O)Nc2c3c(cc4c2CCC4)CCC3)CC1` [Compound 32] and `CCN1CCC(N(c2cnn(C)c2)S(=O)(=O)NC(=O)Nc2c3c(cc4c2CCC4)CCC3)C1` (stereo not drawn) [Compound 50] cannot be ordered by IC50: less than 1 µM for the first, less than 1 µM for the second.

Compared with `CC(C)N1CCC(N(c2cnn(C)c2)S(=O)(=O)NC(=O)Nc2c3c(cc4c2CCC4)CCC3)CC1` [Compound 33], `CC(C)N1CCC(N(c2cnn(C)c2)S(=O)(=O)NC(=O)Nc2c3c(cc4c2CCC4)CCC3)C1` (stereo not drawn) [Compound 51] is lower in IC50: 1 to 3 µM for the first, less than 1 µM for the second.

`CN1CCC(N(c2cnn(C(F)F)c2)S(=O)(=O)NC(=O)Nc2c3c(cc4c2CCC4)CCC3)CC1` [Compound 34] and `CN1CCC(N(c2cnn(CC(F)F)c2)S(=O)(=O)NC(=O)Nc2c3c(cc4c2CCC4)CCC3)CC1` [Compound 36] cannot be ordered by IC50: less than 1 µM for the first, less than 1 µM for the second.

`CN1CCC(N(c2cnn(CC(F)(F)F)c2)S(=O)(=O)NC(=O)Nc2c3c(cc4c2CCC4)CCC3)CC1` [Compound 37] and `Cn1cc(N(C2CCN(CC(F)(F)F)C2)S(=O)(=O)NC(=O)Nc2c3c(cc4c2CCC4)CCC3)cn1` (stereo not drawn) [Compound 61] cannot be ordered by IC50: less than 1 µM for the first, less than 1 µM for the second.

`CN1CCC(N(c2cnn(C3CC3)c2)S(=O)(=O)NC(=O)Nc2c3c(cc4c2CCC4)CCC3)CC1` [Compound 39] and `CN1CCC(N(c2cnn(C3CCC3)c2)S(=O)(=O)NC(=O)Nc2c3c(cc4c2CCC4)CCC3)CC1` [Compound 44] cannot be ordered by IC50: less than 1 µM for the first, less than 1 µM for the second.

`O=C(Nc1c2c(cc3c1CCC3)CCC2)NS(=O)(=O)N(c1cnn(C2COC2)c1)C1CCOCC1` [Compound 41] and `CN1CCC(N(c2cnn(C3COC3)c2)S(=O)(=O)NC(=O)Nc2c3c(cc4c2CCC4)CCC3)CC1` [Compound 42] cannot be ordered by IC50: less than 1 µM for the first, less than 1 µM for the second.

`CN(C)CCn1cc(N(C2CCOCC2)S(=O)(=O)NC(=O)Nc2c3c(cc4c2CCC4)CCC3)cn1` [Compound 43] and `CN1CC(N(c2cnn(C)c2)S(=O)(=O)NC(=O)Nc2c3c(cc4c2CCC4)CCC3)C1` [Compound 59] cannot be ordered by IC50: less than 1 µM for the first, less than 1 µM for the second.

`Cn1cc(N(CCN2CCOCC2)S(=O)(=O)NC(=O)Nc2c3c(cc4c2CCC4)CCC3)cn1` [Compound 46] and `Cn1cc(N(CCN2CCC2)S(=O)(=O)NC(=O)Nc2c3c(cc4c2CCC4)CCC3)cn1` [Compound 63] cannot be ordered by IC50: less than 1 µM for the first, less than 1 µM for the second.

First: CN1CCC(N(c2cnn(C)c2)S(=O)(=O)NC(=O)Nc2c3c(cc4c2CCC4)CCC3)CC1=O (stereo not drawn) [Compound 47]
Second: CC(C)N1CCCC(N(c2cnn(C)c2)S(=O)(=O)NC(=O)Nc2c3c(cc4c2CCC4)CCC3)C1 (stereo not drawn) [Compound 52]
The IC50 of the first is higher: 1 to 3 µM for the first, less than 1 µM for the second. The second is the more potent here.

`CC(C)c1cc(NC(=O)NS(=O)(=O)N(c2cnn(C)c2)C2CCN(C)CC2)cc(C(C)C)c1` [Compound 49] and `CCc1cc(CC)cc(NC(=O)NS(=O)(=O)N(c2cnn(C)c2)C2CCN(C)CC2)c1` [Compound 53] cannot be ordered by IC50: less than 1 µM for the first, less than 1 µM for the second.

Compared with `CC(C)n1cc(N(C2CCCN(C)C2)S(=O)(=O)NC(=O)Nc2c3c(cc4c2CCC4)CCC3)cn1` (stereo not drawn) [Compound 55], `CN1CC2(CC(N(c3cnn(C)c3)S(=O)(=O)NC(=O)Nc3c4c(cc5c3CCC5)CCC4)C2)C1` [Compound 58] is higher in IC50: less than 1 µM for the first, 10 to 50 µM for the second. The first is the more potent here.

For `CN1CCC(N(c2cnn(C)c2)S(=O)(=O)NC(=O)Nc2c3c(cc4c2CCC4)CCC3)CC1C(F)(F)F` (stereo not drawn) [Compound 60], the IC50 was less than 1 µM.
